Tests used:
Test in all cases: relative viability (nuclei count vs DMSO), 5 days (fraction); higher = more cells survive
[1] = compound: COc1cccc2cc(-c3nc([C@H]4CC[C@H](C(=O)O)CC4)n4ncnc(N)c34)[nH]c12 [OSI-027] + CC(=O)c1c(C)c2cnc(Nc3ccc(N4CCNCC4)cn3)nc2n(C2CCCC2)c1=O [Palbociclib] (partner 0.5 µM)
In short: (§1)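 Relative viability is defined as nuclei in treated wells over nuclei in vehicle wells. Duplicate plates were run and medians reported. Lung cancer cell lines in 1536-well plates were dosed by pin tool one day after seeding, with one drug or with a fixed anchor-drug dose plus five library-drug doses (not always all listed) in √10 steps, and nuclei were counted after 5 days.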

[2] = compound: CCCS(=O)(=O)Nc1ccc(F)c(C(=O)c2c[nH]c3ncc(-c4ccc(Cl)cc4)cc23)c1F [Vemurafenib] + CCNC(=O)c1noc(-c2cc(C(C)C)c(O)cc2O)c1-c1ccc(CN2CCOCC2)cc1 [Luminespib] (partner 0.01 µM)
In short: as §1

[3] = compound: Cc1nc(NC(=O)N2CCC[C@H]2C(N)=O)sc1-c1ccnc(C(C)(C)C(F)(F)F)c1 [Alpelisib] + C[C@@H](Oc1cc(-c2cnn(C3CCNCC3)c2)cnc1N)c1c(Cl)ccc(F)c1Cl [Crizotinib] (partner 1 µM)
In short: as §1

[4] = compound: Cc1nc(NC(=O)N2CCC[C@H]2C(N)=O)sc1-c1ccnc(C(C)(C)C(F)(F)F)c1 [Alpelisib] + CC(=O)Nc1cccc(-n2c(=O)n(C3CC3)c(=O)c3c(Nc4ccc(I)cc4F)n(C)c(=O)c(C)c32)c1 [Trametinib] (partner 0.02 µM)
In short: as §1

For UMC-11, the relative viability ([1]; first compound 0.01 µM) was 0.314, the relative viability ([1]; first compound 0.03162 µM) was 0.371 and the relative viability ([1]; first compound 0.1 µM) was 0.307. The relative viability ([1]; first compound 0.3162 µM) was 0.301, the relative viability ([1]; first compound 1 µM) was 0.314 and the relative viability ([2]; first compound 0.03162 µM) was 0.916. It also gave a relative viability ([2]; first compound 0.1 µM) of 0.991, a relative viability ([2]; first compound 0.3162 µM) of 0.984 and a relative viability ([2]; first compound 1 µM) of 0.941. It also gave a relative viability ([3]; first compound 0.04 µM) of 0.589, a relative viability ([3]; first compound 0.1265 µM) of 0.516 and a relative viability ([3]; first compound 0.4 µM) of 0.724. It also gave a relative viability ([3]; first compound 1.265 µM) of 0.688, a relative viability ([3]; first compound 4 µM) of 0.536 and a relative viability ([4]; first compound 0.04 µM) of 0.696. For the same cell line, the relative viability ([4]; first compound 0.1265 µM) was 0.628, the relative viability ([4]; first compound 0.4 µM) was 0.875 and the relative viability ([4]; first compound 1.265 µM) was 0.67. For the same cell line, the relative viability ([4]; first compound 4 µM) was 0.68.
